Test results published in patent publication US6462072B1, “Cyclic ester or amide derivatives” (GPI NIL Holdings, Inc., priority 1998, dated 2002).

Target: FKBP (Homo sapiens, UniProt P62942)
Assay: Ki test procedure: inhibition of peptidyl-prolyl isomerase (rotamase) activity, chymotrypsin-coupled assay
Type: biochemical
Conditions: read-out: Ki (apparent Ki, rotamase inhibition)
From the text: Inhibition of the peptidyl-prolyl isomerase (rotamase) activity of the inventive compounds can be evaluated by known methods described in the literature (Harding, M. W. et al. Nature 341: 758-760 (1989); Holt et al. J. Am. Chem. Soc. 115: 9923-9938). These values are obtained as apparent Ki's and are presented in Table I. The cis-trans isomerization of an alanine-proline bond in a model substrate, N-succinyl-Ala-Ala-Pro-Phe-p-nitroanilide, is monitored spectro-photometrically in a chymotrypsin-coupled assay, which releases para-nitroanilide from the trans form of the substrate. The inhibition of this reaction caused by the addition of different concentrations of inhibitor is determined, and the data is analyzed as a change in first-order rate constant as a function of inhibitor concentration to yield the apparent Kivalues.
In a plastic cuvette are added […] of ice cold assay buffer (25 mM HEPES, pH 7.8, 100 mM NaCl), […] of FKBP (2.5 mM in 10 mM Tris-Cl pH 7.5, 100 mM NaCl, 1 mM dithiothreitol), […] of chymotrypsin (50 mg/mL in 1 mM HCl) and 10 mL of test compound at various concentrations in dimethyl sulfoxide. […]
The absorbance at 390 nm versus time is monitored for 90 sec using a spectrophotometer and the rate constants are determined from the absorbance versus time data files.

FKBP, sequence (P62942 whole entry): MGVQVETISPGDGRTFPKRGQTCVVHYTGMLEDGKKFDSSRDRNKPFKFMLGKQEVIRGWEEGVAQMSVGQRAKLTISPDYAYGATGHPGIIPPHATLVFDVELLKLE

**Q.** For `CCC(C)(C)C(=O)C(=O)N1CCC[C@H]1C(=O)OC1CCC(c2ccccc2)(c2ccccc2)CC1` [4,4-diphenylcyclohexl (2S)-1-(3,3-dimethyl-2-oxopentanoyl)-pyrrolidine-2-carboxylate], which Ki is on record?
**A.** 5.64 µM
